Patent US11253594B2, “Drug combinations for protecting against neuronal cell death” (UNIVERSITY OF PITTSBURGH-OF THE COMMONWEALTH SYSTEM OF …, priority 2017, dated 2022)
Where a name gives a salt, the structure may show the parent alone. Read-outs that look alike come from different tables or passages of the source.

What was measured:
STHdh^Q111 cells [1] = assay: 384-well PI (propidium iodide) assay, protection from mHTT induced cell death; assay type: cell-based, mouse; conditions: compound titrations, serum deprived STHdh^Q111 cells
Protocol: The well-established STHdh^Q111 cell model for HD was employed to identify compounds that can protect neuronal cells from mHTT-dependent cell death. […] The propidium iodide (PI) readout enables an unbiased assessment of cell death by measuring an irreversible step that is common to all cytotoxic mechanisms.
The stress conditions for testing compounds involved incubation of the cells in serum-free medium at 37° C. and 5% CO2.
Prior to compound treatment, medium was removed and the cells washed once with PBS (pH=7.4) after which 45 μl of complete medium was added. Compounds in 5 μl complete medium were added to cells. […] Compounds in serum free medium (5 μl) were added and cells were incubated at 37° C. and 5% CO2.
Image analysis was carried out using the Multiwavelength Cell Scoring application in the MetaXpress software. The nuclear compartment was identified in Ch1 with a threshold intensity of 2,000 above background and the Texas Red compartment was identified in Ch2 with a threshold intensity of 20,000 above background.
For the analyses presented here the Percent Recovery was calculated from the Percent PI positive cells by:
[formula] where positive controls are the STHdh^Q7 cells, and negative controls are the STHdh^Q111 cells treated with DMSO
The LOPAC library was screened in the 384-well PI assay at 30, 10, and 3 μM.

[2] = system: PKA phosphorylated at threonine 197 (pPKA) in STHdh^Q111 cells; assay: PKA activation assay (pPKA, high content analysis); assay type: cell-based, mouse; conditions: 24 h serum free conditions
Protocol: The pPKA levels were examined at 24 hours after serum free conditions since this was the condition where the protection of the compounds was measured.
Cells were treated as described for testing in the 384-well PI assay. […] Plates were blocked with 3% BSA in PBS and were incubated with rabbit anti-PKA (αβγ catalytic subunit; EP2606Y; phospho-T197, abcam, Cambridge Mass.) mAb overnight at 4° C. […] Image analysis was carried out using the Multiwavelength Translocation application in the MetaExpress software. The nuclear compartment was identified in Ch1 with a threshold intensity of 5,000 above background (the nuclear mask). The nuclear mask was eroded 1 μm to create the Inner region mask in Ch2. […] The cytoplasmic pKA was measured in a […] ring around the nuclear mask.

STHdh^Q111 cells [3] = assay type: cell-based; conditions: for toxicity / protection with or of the PKA inhibitor: STHdh^Q111 cells, PI assay conditions; for reduction in the level of protection compared to compound alone: co-incubation with 10 μM H89
PKA = PKA (Homo sapiens, UniProt P17612); conditions: cited from earlier work
[4] = system: pCREB in the nucleus of STHdh^Q111 cells; assay: Nuclear pCREB high content analysis (surrogate marker for PKA activity); assay type: cell-based, mouse; conditions: 10 μM H89 co-incubated with protective compounds
Source text: The concentrations used were chosen to be on plateau of their respective activity curves (see FIG. 3). […] Analysis is from triplicate samples run in four independent experiments (Error bars are +/−SE). T-test was used to assess changes in the percent recovery levels relative to the STHdh^Q111 cells treated with compound without H89. […] Analysis was from triplicate samples run in four independent experiments (Error bars are +/−SE). T-test was used to assess changes in the pCREB intensity relative to the STHdhQ111 cells treated with compound without H89.
H89 has been used extensively in the literature as a selective and potent inhibitor of PKA. If the protection from cell death by these compounds involved activation of PKA, then the addition of an inhibitor of PKA would be expected to reverse the protective effects of the compounds. […] Since the primary canonical mechanism of sodium nitroprusside is activation of PKG, and given that H89 is ˜10-fold selective for PKA over PKG, the absence of a marked effect with sodium nitroprusside is not unexpected. […] To confirm inhibition of PKA activity by H89 under the conditions of the PI assay, the levels of nuclear pCREB were measured using high content analysis. Consistent with the heterogeneity seen in the response of the STHdh^Q111 cells to protection by the compounds, a heterogeneous distribution of pCREB levels was also detected. […]

[5] = system: cAMP levels in STHdh^Q111 cells; assay: cAMP Enzyme Immunoassay
cells expressing mHTT [6] = assay: Example 2 screen of a larger mechanistically diverse chemical library for protection from mHTT-induced cytotoxicity
cells expressing mHTT [7] = system: cells expressing mHTT

Molecule | neuroprotective activity in the PI assay (STHdh^Q111 cells [1]) | other results
CN1[C@@H]2CC[C@H]1CC(OC(=O)c1c[nH]c3ccccc13)C2.Cl (stereo partly shown) [3-tropanyl-indole-3-carboxylate hydrochloride] | confirmed neuroprotective activity | 
C/C=C1\C(=O)C[C@H]2[C@@H]3CCC4=CC(=O)CC[C@]4(C)[C@H]3CC[C@]12C [(Z)-Gugglesterone] | confirmed neuroprotective activity | 
CC(=O)Nc1nnc(S(N)(=O)=O)s1 [Acetazolamide] | did not protect | 
C[C@H]1C[C@H]2[C@@H]3CCC4=CC(=O)C=C[C@]4(C)[C@@]3(Cl)[C@@H](O)C[C@]2(C)[C@@]1(O)C(=O)CO [Beclomethasone] | confirmed neuroprotective activity | 
CN1[C@@H]2CC[C@H]1C[C@@H](OC(c1ccccc1)c1ccccc1)C2 [Benztropine mesylate] | confirmed neuroprotective activity | cytoplasmic pPKA, concentration response [2]: concentration-dependent increase; toxicity / protection with or of the PKA inhibitor (STHdh^Q111 cells [3]): increased toxicity
CCN[C@H]1CN(CCCOC)S(=O)(=O)c2sc(S(N)(=O)=O)cc21 [Brinzolamide] | did not protect | 
O=S(=O)(NCCNC/C=C/c1ccc(Br)cc1)c1cccc2cnccc12 [Combination H89] |  | selectivity for PKA over PKG (PKA): ~10 fold; levels of nuclear pCREB [4]: decreased; toxicity / protection with or of the PKA inhibitor (STHdh^Q111 cells [3]): no significant protection or toxicity
CN1CCC(=C2c3ccccc3C=Cc3ccccc32)CC1 [Cyproheptadine hydrochloride] | confirmed neuroprotective activity | 
O=c1[nH]c2ccccc2n1CCCN1CCC(n2c(=O)[nH]c3cc(Cl)ccc32)CC1 [Domperidone] | confirmed neuroprotective activity | reduction in the level of protection compared to compound alone (STHdh^Q111 cells [3]): 56%
CCN[C@H]1C[C@H](C)S(=O)(=O)c2sc(S(N)(=O)=O)cc21 [Dorzolamide] | did not protect | 
CCOc1ccc2nc(S(N)(=O)=O)sc2c1 [Ethoxzolamide] | confirmed neuroprotective activity | 
C[C@]12CCC(=O)C=C1CC[C@@H]1[C@@H]2[C@@H](O)C[C@@]2(C)[C@H]1CC[C@]2(O)C(=O)CO [Hydrocortisone] | confirmed neuroprotective activity | 
CCC(NC(C)C)C(O)c1ccc(O)c(O)c1 (stereo not shown) [Isotharine mesylate] | confirmed neuroprotective activity | cytoplasmic pPKA, concentration response [2]: concentration-dependent increase; statistical significance of change in cAMP levels ([5]; 15 and 30 minutes, t-test vs DMSO): statistically significant increase; reduction in the level of protection compared to compound alone (STHdh^Q111 cells [3]): 34%
CCCn1c(C)c(C(=O)c2cccc3ccccc23)c2ccccc21 [JWH-015] | confirmed neuroprotective activity | protection from mHTT-induced cytotoxicity in the screen (cells expressing mHTT [6]): demonstrating protection
Cc1c(OCC(F)(F)F)ccnc1C[S+]([O-])c1nc2ccccc2[nH]1 (stereo not shown) [Lansoprazole] | confirmed neuroprotective activity | 
O=C(O)c1nn(Cc2ccc(Cl)cc2Cl)c2ccccc12 [Lonidamine] | confirmed neuroprotective activity | 
CN1CCN(C2=Nc3ccccc3Oc3ccc(Cl)cc32)CC1 [Loxapine succinate] | confirmed neuroprotective activity | cytoplasmic pPKA, concentration response [2]: concentration-dependent increase; reduction in the level of protection compared to compound alone (STHdh^Q111 cells [3]): 52%

Molecule | neuroprotective activity in the PI assay (STHdh^Q111 cells [1]) | other results
Cc1cccc(CN2CCN(C(c3ccccc3)c3ccc(Cl)cc3)CC2)c1 (stereo not shown) [Meclizine] | confirmed neuroprotective activity | 
CN1CCN2c3ccccc3Cc3ccccc3C2C1 (stereo not shown) [Mianserin hydrochloride] | confirmed neuroprotective activity | cytoplasmic pPKA, concentration response [2]: concentration-dependent increase; reduction in the level of protection compared to compound alone (STHdh^Q111 cells [3]): 35%
Cc1cccc(C(=O)NCN2CCN(c3ccccc3C#N)CC2)c1.O=C(O)/C=C\C(=O)O [PD 168,077 maleate] | confirmed neuroprotective activity | 
COc1ccc(Cc2nccc3cc(OC)c(OC)cc23)cc1OC [Papaverine hydrochloride] | confirmed neuroprotective activity | cytoplasmic pPKA, concentration response [2]: less pronounced; reduction in the level of protection compared to compound alone (STHdh^Q111 cells [3]): 55%
C[C@]12C=CC(=O)C=C1CC[C@@H]1[C@@H]2[C@@H](O)C[C@@]2(C)[C@H]1CC[C@]2(O)C(=O)CO [Prednisolone] | confirmed neuroprotective activity | 
CN1CCN(c2ccc3ccccc3n2)CC1.O=C(O)/C=C\C(=O)O.O=C(O)/C=C\C(=O)O [Quipazine, N-methyl-, dimaleate] | confirmed neuroprotective activity | 
N.N.N.N.N.N.N.N.N.N.N.N.N.N.[Cl-].[Cl-].[Cl-].[Cl-].[Cl-].[Cl-].[O-2].[O-2].[Ru+3].[Ru+3].[Ru+4] [Ruthenium red] | confirmed neuroprotective activity | 
CNC(=O)COC(=O)N1CCC(CCc2ccc(Cl)cc2)CC1 [SA 57] |  | protection from mHTT-induced cytotoxicity in the screen (cells expressing mHTT [7]): demonstrating protection
O=C(OCCN1CCCCC1)c1c[nH]c2ccccc12 [SB 203186] | confirmed neuroprotective activity | 
C[C@]12C=CC(=O)C=C1CC[C@H]1[C@@H]3C[C@@H](O)[C@](O)(C(=O)CO)[C@@]3(C)C[C@H](O)[C@@]12F [Triamcinolone] | confirmed neuroprotective activity | 
Cc1ccc(/C(=C\CN2CCCC2)c2ccccn2)cc1 [Triprolidine hydrochloride] | confirmed neuroprotective activity | 
Cc1c(C)c2c(c(C)c1O)CCC(C)(CN1CCN(c3cc(N4CCCC4)nc(N4CCCC4)n3)CC1)O2.Cl.Cl (stereo not shown) [U-83836 dihydrochloride] | confirmed neuroprotective activity | 
CCOC(=O)C1=C[C@]2(CC)CCCN3CCc4c(n1c1ccccc41)[C@@H]32 [Vinpocetine] | confirmed neuroprotective activity | 
O=C(CCCCCCC(=O)Nc1ccccc1)NO [Vorinostat] | confirmed neuroprotective activity | 
C=C[C@@]1(C)CC(=O)[C@]2(O)[C@@]3(C)[C@@H](O)CCC(C)(C)[C@@H]3[C@H](O)[C@H](OC(C)=O)[C@@]2(C)O1 [forskolin] |  | increase in cAMP over the DMSO control ([5]; 15 minutes after compound treatment in the presence of serum): 250 fold
Tetradecylthioacetic acid | confirmed neuroprotective activity | 
m-Iodobenzylguanidine hemisulfate | confirmed neuroprotective activity | 
